{"source": "ChEMBL document CHEMBL6127034", "about": "“Design, synthesis and biological evaluation of a novel PAK1 degrader for the treatment of triple negative breast cancer” (Bioorg Med Chem, 2024)", "key": {"[1]": {"tested_on": "MDA-MB-231", "test": "Inhibition of cell migration in human MDA-MB-231 cells at 2.5 uM incubated upto 48 hrs by wound healing assay", "type": "functional, cell-based"}, "[2]": {"tested_on": "MDA-MB-231", "test": "Inhibition of formation of human MDA-MB-231 cells tumor sphere by crystal violet staining based analysis", "type": "functional, cell-based", "conditions": "time <= 48.0 hrs, TDE = time-dependent effect"}, "[3]": {"tested_on": "MDA-MB-231", "test": "Antiproliferative activity against human MDA-MB-231 cells assessed as decrease in colony formation by crystal violet staining based analysis", "type": "functional, cell-based", "conditions": "dose <= 10.0 µM"}, "[4]": {"tested_on": "MDA-MB-231", "test": "Induction of apoptosis in human MDA-MB-231 cells xenografted in BALB/c mouse assessed as decrease in ERK1/2 phosphorylation at Thr202/Tyr204 at 20 mg/kg, ip qd for 12 days by Western blot analysis", "type": "functional, organism-based", "conditions": "time 12.0 day"}, "[5]": {"tested_on": "MDA-MB-231", "test": "Induction of apoptosis in human MDA-MB-231 cells assessed as increase in Bax level at 2.5 to 10 uM incubated upto 48 hrs by Western blot analysis", "type": "functional, cell-based", "conditions": "dose 2.5-10 µM"}, "[6]": {"tested_on": "MDA-MB-231", "test": "Induction of apoptosis in human MDA-MB-231 cells assessed as late apoptotic cells at 2.5 to 10 uM incubated for 48 hrs by Annexin V-FITC/PI staining based flow cytometry (reference value: 2.46 %)", "type": "functional", "conditions": "dose 2.5-10 µM"}, "[7]": {"molecular_target": "T1, Serine/threonine-protein kinase PAK 1 (Homo sapiens, UniProt Q13153)", "T1 sequence (Q13153 whole entry)": "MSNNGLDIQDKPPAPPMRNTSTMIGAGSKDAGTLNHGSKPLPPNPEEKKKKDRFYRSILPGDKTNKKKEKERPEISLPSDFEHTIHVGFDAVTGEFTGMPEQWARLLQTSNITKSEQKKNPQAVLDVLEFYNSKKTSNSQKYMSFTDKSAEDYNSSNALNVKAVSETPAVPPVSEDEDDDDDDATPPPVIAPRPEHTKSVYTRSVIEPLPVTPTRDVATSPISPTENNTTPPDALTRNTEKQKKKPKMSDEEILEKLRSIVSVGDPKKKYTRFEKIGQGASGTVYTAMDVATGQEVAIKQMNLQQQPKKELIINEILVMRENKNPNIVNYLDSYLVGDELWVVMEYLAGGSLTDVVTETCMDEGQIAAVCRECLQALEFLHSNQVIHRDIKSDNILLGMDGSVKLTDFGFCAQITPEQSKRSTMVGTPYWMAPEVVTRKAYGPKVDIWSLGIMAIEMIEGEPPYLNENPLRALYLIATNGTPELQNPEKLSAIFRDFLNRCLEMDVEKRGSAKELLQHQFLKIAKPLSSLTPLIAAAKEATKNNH", "test": "Inhibition of PAK1 in human MDA-MB-231 cells incubated upto 48 hrs by Western blot analysis", "type": "cell-based"}, "[8]": {"tested_on": "MDA-MB-231", "test": "Antitumor activity against human MDA-MB-231 cells xenografted in BALB/c mouse assessed as reduction in tumor volume at 20 mg/kg, ip qd for 12 days", "type": "functional, organism-based", "conditions": "time 12.0 day"}, "[9]": {"molecular_target": "T2, von Hippel-Lindau disease tumor suppressor/Serine/threonine-protein kinase PAK 1 (Homo sapiens, UniProt Q13153+P40337)", "T2 sequence (Q13153 2-545 limits assumed)": "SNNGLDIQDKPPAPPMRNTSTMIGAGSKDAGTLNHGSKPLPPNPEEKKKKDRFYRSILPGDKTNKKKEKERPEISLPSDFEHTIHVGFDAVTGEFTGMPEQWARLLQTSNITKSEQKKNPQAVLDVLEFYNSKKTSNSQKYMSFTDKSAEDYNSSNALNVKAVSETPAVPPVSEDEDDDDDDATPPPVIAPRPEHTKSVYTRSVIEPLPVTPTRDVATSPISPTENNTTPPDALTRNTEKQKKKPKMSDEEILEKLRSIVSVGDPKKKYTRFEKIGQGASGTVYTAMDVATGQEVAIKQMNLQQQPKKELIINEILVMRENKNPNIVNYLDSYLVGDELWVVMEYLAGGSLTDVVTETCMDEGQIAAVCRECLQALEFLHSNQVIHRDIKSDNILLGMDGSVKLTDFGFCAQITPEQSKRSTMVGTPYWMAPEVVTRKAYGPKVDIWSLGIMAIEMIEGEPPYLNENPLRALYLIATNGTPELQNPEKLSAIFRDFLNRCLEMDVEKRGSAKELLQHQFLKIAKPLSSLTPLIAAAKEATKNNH", "T2 sequence (P40337 whole entry partner)": "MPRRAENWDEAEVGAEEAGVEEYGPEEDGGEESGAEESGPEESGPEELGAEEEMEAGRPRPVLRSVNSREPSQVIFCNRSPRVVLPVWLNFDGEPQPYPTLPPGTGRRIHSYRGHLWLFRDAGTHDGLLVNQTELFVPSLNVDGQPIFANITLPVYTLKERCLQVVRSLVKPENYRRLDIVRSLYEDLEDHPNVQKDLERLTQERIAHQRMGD", "test": "PROTAC activity at VHL/PAK1 in human MDA-MB-231 cells assessed as induction of protein degradation incubated for 48 hrs in presence of Bortezomib by Western blot analysis", "type": "cell-based"}, "[10]": {"molecular_target": "T2, von Hippel-Lindau disease tumor suppressor/Serine/threonine-protein kinase PAK 1", "test": "PROTAC activity at VHL/PAK1 in human MDA-MB-231 cells assessed as induction of protein degradation at 0.1 uM incubated for 48 hrs by Western blot analysis relative to control", "type": "cell-based"}, "[11]": {"tested_on": "MDA-MB-231", "test": "Antiproliferative activity against human MDA-MB-231 cells assessed as decrease in green fluorescence by EdU staining based analysis", "type": "functional, cell-based"}, "[12]": {"molecular_target": "T1, Serine/threonine-protein kinase PAK 1", "test": "Binding affinity to CM5 chip-immobilized recombinant PAK1 (unknown origin) assessed as dissociation constant by SPR analysis"}, "[13]": {"tested_on": "MDA-MB-231", "test": "Induction of apoptosis in human MDA-MB-231 cells assessed as decrease in Bcl-2 level at 2.5 to 10 uM incubated upto 48 hrs by Western blot analysis", "type": "functional, cell-based", "conditions": "dose 2.5-10 µM"}, "[14]": {"tested_on": "MDA-MB-231", "test": "Inhibition of cell migration in human MDA-MB-231 cells assessed as decrease in MMP-2 level by Western blot analysis", "type": "functional, cell-based", "conditions": "time <= 48.0 hrs, TDE = time-dependent effect"}, "[15]": {"tested_on": "MDA-MB-231", "test": "Antiproliferative activity against human MDA-MB-231 cells assessed as decrease in Ki-67 expression at 5 uM incubated for 24 hrs by immunofluorescence based analysis", "type": "functional, cell-based"}, "[16]": {"tested_on": "MDA-MB-231", "test": "Induction of apoptosis in human MDA-MB-231 cells assessed as increase in cleaved caspase-8 level at 2.5 to 10 uM incubated upto 48 hrs by Western blot analysis", "type": "functional, cell-based", "conditions": "dose 2.5-10 µM"}, "[17]": {"tested_on": "MDA-MB-231", "test": "Induction of apoptosis in human MDA-MB-231 cells assessed as late apoptotic cells at 2.5 uM incubated for 12 to 48 hrs by Annexin V-FITC/PI staining based flow cytometry (reference value: 1.48 %)", "type": "functional", "conditions": "time 12-48 hrs"}, "[18]": {"tested_on": "MDA-MB-231", "test": "Induction of apoptosis in human MDA-MB-231 cells assessed as necrotic cells at 2.5 to 10 uM incubated for 48 hrs by Annexin V-FITC/PI staining based flow cytometry (reference value: 1.08 %)", "type": "functional", "conditions": "dose 2.5-10 µM"}, "[19]": {"tested_on": "MDA-MB-231", "test": "Induction of apoptosis in human MDA-MB-231 cells xenografted in BALB/c mouse assessed as increase in E-Cadherin level at 20 mg/kg, ip qd for 12 days by Western blot analysis", "type": "functional, organism-based", "conditions": "time 12.0 day"}, "[20]": {"molecular_target": "Serine/threonine-protein kinase PAK 2 (Homo sapiens) (UniProt Q13177)", "sequence (Q13177 whole entry)": "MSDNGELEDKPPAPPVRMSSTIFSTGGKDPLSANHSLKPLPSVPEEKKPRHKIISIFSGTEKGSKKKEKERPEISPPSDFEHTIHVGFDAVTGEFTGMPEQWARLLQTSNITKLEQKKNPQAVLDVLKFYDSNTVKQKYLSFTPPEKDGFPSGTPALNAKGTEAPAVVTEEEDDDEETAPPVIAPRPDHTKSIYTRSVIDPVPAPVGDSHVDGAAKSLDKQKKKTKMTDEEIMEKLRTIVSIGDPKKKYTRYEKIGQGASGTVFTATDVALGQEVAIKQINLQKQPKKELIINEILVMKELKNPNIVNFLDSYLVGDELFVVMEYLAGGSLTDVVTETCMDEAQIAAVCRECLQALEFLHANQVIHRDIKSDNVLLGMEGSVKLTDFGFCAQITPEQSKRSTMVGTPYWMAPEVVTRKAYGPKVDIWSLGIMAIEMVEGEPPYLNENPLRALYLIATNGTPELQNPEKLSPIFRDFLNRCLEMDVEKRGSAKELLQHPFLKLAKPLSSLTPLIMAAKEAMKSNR", "test": "Inhibition of PAK2 in human MDA-MB-231 cells incubated upto 48 hrs by Western blot analysis", "type": "cell-based"}, "[21]": {"molecular_target": "T1, Serine/threonine-protein kinase PAK 1", "test": "Induction of thermal stability of PAK1 in human MDA-MB-231 cells at 10 uM under 37 to 67 degreeC heat exposure by CETSA", "type": "cell-based"}, "[22]": {"tested_on": "MDA-MB-231", "test": "Inhibition of 3D-spherioid formation of human MDA-MB-231 cells at 2.5 uM by crystal violet staining based colony formation assay", "type": "functional, cell-based"}, "[23]": {"molecular_target": "Serine/threonine-protein kinase PAK 3 (Homo sapiens) (UniProt O75914)", "sequence (O75914 whole entry, looked up)": "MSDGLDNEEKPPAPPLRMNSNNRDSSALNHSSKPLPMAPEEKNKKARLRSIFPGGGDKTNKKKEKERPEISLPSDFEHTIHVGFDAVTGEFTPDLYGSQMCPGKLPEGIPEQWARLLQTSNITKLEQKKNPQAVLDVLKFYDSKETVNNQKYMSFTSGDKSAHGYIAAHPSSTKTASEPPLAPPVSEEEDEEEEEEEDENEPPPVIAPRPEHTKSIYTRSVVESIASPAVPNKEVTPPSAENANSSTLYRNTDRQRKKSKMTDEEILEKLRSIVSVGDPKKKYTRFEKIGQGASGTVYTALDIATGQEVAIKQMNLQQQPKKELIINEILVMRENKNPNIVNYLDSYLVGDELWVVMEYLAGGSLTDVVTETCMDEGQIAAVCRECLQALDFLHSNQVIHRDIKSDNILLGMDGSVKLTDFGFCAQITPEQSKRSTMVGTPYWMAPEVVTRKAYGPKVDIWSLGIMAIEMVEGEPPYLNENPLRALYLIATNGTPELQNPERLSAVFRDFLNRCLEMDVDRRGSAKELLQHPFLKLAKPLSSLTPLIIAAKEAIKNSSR", "test": "Inhibition of PAK3 in human MDA-MB-231 cells incubated upto 48 hrs by Western blot analysis", "type": "cell-based"}, "[24]": {"test": "Toxicity in BALB/c mouse xenografted with human MDA-MB-231 cells assessed as animal growth at 20 mg/kg, ip qd for 12 days", "type": "organism-based", "conditions": "in vivo, 288 h, time 12 day"}, "[25]": {"tested_on": "MDA-MB-231", "test": "Induction of apoptosis in human MDA-MB-231 cells assessed as early apoptotic cells at 2.5 to 10 uM incubated for 48 hrs by Annexin V-FITC/PI staining based flow cytometry (reference value: 1.70 %)", "type": "functional", "conditions": "dose 2.5-10 µM"}, "[26]": {"molecular_target": "T1, Serine/threonine-protein kinase PAK 1", "test": "Inhibition of PAK1 in human MDA-MB-231 cells at 5 uM incubated for 24 hrs by immunofluorescence based analysis", "type": "cell-based"}, "[27]": {"tested_on": "MDA-MB-231", "test": "Induction of apoptosis in human MDA-MB-231 cells xenografted in BALB/c mouse assessed as increase in PARP level at 20 mg/kg, ip qd for 12 days by Western blot analysis", "type": "functional, organism-based", "conditions": "time 12.0 day"}, "[28]": {"molecular_target": "T2, von Hippel-Lindau disease tumor suppressor/Serine/threonine-protein kinase PAK 1", "test": "PROTAC activity at VHL/PAK1 in human MDA-MB-231 cells assessed as induction of protein degradation incubated for 48 hrs in presence of VHL by Western blot analysis", "type": "cell-based"}, "[29]": {"molecular_target": "T2, von Hippel-Lindau disease tumor suppressor/Serine/threonine-protein kinase PAK 1", "test": "PROTAC activity at VHL/PAK1 in human MDA-MB-231 cells assessed as induction of protein degradation at 2.5 uM incubated for 48 hrs by Western blot analysis relative to control", "type": "cell-based"}, "[30]": {"tested_on": "MDA-MB-231", "test": "Induction of apoptosis in human MDA-MB-231 cells assessed as late apoptotic cells at 2.5 to 10 uM incubated for 24 hrs by Annexin V-FITC/PI staining based flow cytometry (reference value: 2.46 %)", "type": "functional", "conditions": "dose 2.5-10 µM"}, "[31]": {"tested_on": "MDA-MB-231", "test": "Induction of apoptosis in human MDA-MB-231 cells assessed as viable cells at 2.5 to 10 uM incubated for 12 hrs by Annexin V-FITC/PI staining based flow cytometry (reference value: 94.8 %)", "type": "functional", "conditions": "dose 2.5-10 µM"}, "[32]": {"test": "Toxicity in BALB/c mouse xenografted with human MDA-MB-231 cells assessed as body weight change at 20 mg/kg, ip qd for 12 days", "type": "organism-based", "conditions": "in vivo, 288 h, time 12 day"}, "[33]": {"tested_on": "MDA-MB-231", "test": "Induction of apoptosis in human MDA-MB-231 cells assessed as increase in cleaved caspase-3 level at 2.5 to 10 uM incubated upto 48 hrs by Western blot analysis", "type": "functional, cell-based", "conditions": "dose 2.5-10 µM"}, "[34]": {"molecular_target": "T1, Serine/threonine-protein kinase PAK 1", "test": "Inhibition of PAK1 phosphorylation at S144 in human MDA-MB-231 cells incubated upto 48 hrs by Western blot analysis", "type": "cell-based"}}, "note": "Activity calls are given as the source filed them. The calls are words filed in the database; no cut-off is given here.", "data": [{"smiles": "Cc1ncsc1-c1ccc([C@H](C)NC(=O)[C@@H]2C[C@@H](O)CN2C(=O)[C@@H](NC(=O)CCc2cn(CCCCCCCn3c(=O)c(-c4ccc(Cl)cc4Cl)cc4cnc(NC5CC5)nc43)nn2)C(C)(C)C)cc1", "values": [{"measurement": "inhibition", "setting": "[1]", "result": "Active"}, {"measurement": "inhibition", "setting": "[2]", "result": "Tde"}, {"measurement": "Activity", "setting": "[3]", "result": "Dose-Dependent Effect"}, {"measurement": "Activity", "setting": "[4]", "result": "Active"}, {"measurement": "Activity", "setting": "[5]", "result": "Active"}, {"measurement": "Activity", "setting": "[6]", "result": 4.94, "unit": "%"}, {"measurement": "inhibition", "setting": "[7]", "result": "Active"}, {"measurement": "Activity", "setting": "[8]", "result": "Active"}, {"measurement": "Activity", "setting": "[9]", "result": "inactive"}, {"measurement": "Activity", "setting": "[10]", "result": 52.4, "unit": "%"}, {"measurement": "Activity", "setting": "[11]", "result": "Active"}, {"measurement": "Kd", "setting": "[12]", "result": 16.2, "unit": "µM"}, {"measurement": "Activity", "setting": "[13]", "result": "Active"}, {"measurement": "inhibition", "setting": "[14]", "result": "Tde"}, {"measurement": "Activity", "setting": "[15]", "result": "Active"}, {"measurement": "Activity", "setting": "[16]", "result": "Active"}, {"measurement": "Activity", "setting": "[17]", "result": 8.21, "unit": "%"}, {"measurement": "Activity", "setting": "[18]", "result": 1.74, "unit": "%"}, {"measurement": "Activity", "setting": "[19]", "result": "Active"}, {"measurement": "inhibition", "setting": "[20]", "result": "inactive"}, {"measurement": "Activity", "setting": "[21]", "result": "Active"}, {"measurement": "inhibition", "setting": "[22]", "result": "Active"}, {"measurement": "inhibition", "setting": "[23]", "result": "inactive"}, {"measurement": "Activity", "setting": "[24]", "result": "Non-Toxic"}, {"measurement": "Activity", "setting": "[25]", "result": 37.9, "unit": "%"}, {"measurement": "inhibition", "setting": "[26]", "result": "Active"}, {"measurement": "Activity", "setting": "[27]", "result": "Active"}, {"measurement": "Activity", "setting": "[28]", "result": "inactive"}, {"measurement": "Activity", "setting": "[29]", "result": 71, "unit": "%"}, {"measurement": "Activity", "setting": "[30]", "result": 6.74, "unit": "%"}, {"measurement": "Activity", "setting": "[31]", "result": 86.3, "unit": "%"}, {"measurement": "Activity", "setting": "[32]", "result": "Non-Toxic"}, {"measurement": "Activity", "setting": "[33]", "result": "Active"}, {"measurement": "inhibition", "setting": "[34]", "result": "Active"}]}]}
